Measured values published in paper PMC6165478, “Wine and Olive Oil Phenolic Compounds Interaction in Humans” (Diseases, 2018).
Values joined by “and” are separate entries in the source; they are usually repeats but may differ in a detail not shown here. Equal values may be shown once. Marks after values point to notes of the source that are not given here.

Experiments:
[1] = Urinary recovery of RESV, its isomers and dihydro-RESV (GC-MS after enzymatic hydrolysis), crossover clinical trial; conditions: for RESV urinary recovery from 0 to 6 h: urine 0-6 h, n = 12, mean ± SD
Description: The study consisted of a crossover randomized clinical trial with three different interventions. The interventions consisted of a single administration of 25 mL of EVOO, 150 mL of RW, or the combination of both 25 mL of EVOO and 150 mL of RW. Treatment quantities were equivalent to normal dietary doses of a typical MD. A total of twelve healthy subjects (50% women, 34.0 ± 10.5, BMI = 22.0 ± 3.3 kg/m^2) participated in the study. The study was explained to participants through verbal and written instructions, and written informed consent was obtained before participation. Volunteers received each treatment in a randomized manner. The study included three experimental sessions in which each intervention was administered under fasting conditions. Each experimental session was preceded by a two-day washout period. The total duration of the study was nine days.
On the day of the intervention, subjects consumed one of the three interventions within a period of 5–10 min. Urine was collected in separate fractions, at baseline (−2–0 h), to assess dietary compliance and during 6 h after each dietary intervention (0–6 h). The amount of urine in each fraction was measured, acidified with 6 M HCl, and stored at −20 °C until analysis. The study protocol was approved by the Ethics Committee of Parc de Salut Mar (CEIC-PSMAR) (Spain), and the clinical trial was registered at the International Standard Randomized Controlled Trial Number (NCT03614520).
Urine was subjected to a hydrolysis procedure previously described by our working group. Aliquots of 1 mL of diluted urine (1:10 in water) were spiked with 10 µL of IS (containing 10 µg/mL of diethylstilbestrol), 100 µL of sodium metabisulfite, 1 mL acetate buffer 0.1 M pH 5.2, and 25 µL of β-glucuronidase. The samples were incubated at 37 °C overnight. After incubation, 1 mL of NaOH was added to neutralize the hydrolysis process. For the extraction of the phenolic compounds, 0.5 mL of a saturated solution of NaCl and 4 mL of acetonitrile-ethyl acetate mixture (1:4 v/v) were added. Samples were mixed for 30 min, centrifuged for 5 min at 300 g, and the organic phase was extracted and evaporated until dry. After 1 h in an oven at 50 °C, the residue was derivatized with 75 µL of MSTFA: NH4I:2-mercaptoethanol reaction mixture for 30 min at 60 °C and 2 µL was injected into the gas chromatograph.
For the preparation of the calibration curves, 1 mL of diluted urine (1:10 in water) was spiked with an increasing concentration of c- and t-RESV and dihydro-RESV (10–200 ng/mL), and subjected to the extraction procedure exactly in the same way as the samples.
The extracted samples were analyzed using an Agilent Technologies (Santa Clara, CA, USA) 6890 N gas chromatograph coupled to a 5973 mass-selective detector. For chromatographic separation, a 5% phenyl-dimethyl-polysiloxane Zebron™ (Torrance, CA, USA) fused-silica capillary column (15 m × 0.25 mm i.d., 0.25 µm film thickness) was used. The split injection mode using helium as a carrier gas (0.9 mL/min) was applied. The temperatures of the injector and transfer line were set at 280 °C. Gas chromatographic conditions were as follows: initial oven temperature at 80 °C, raised by 20 °C/min to 200 °C, then by 10 °C/min to 300 °C, and maintained at 300 °C for 3 min. […] Ions at m/z 444 (RESV and piceid), m/z 179 (dihydro-RESV), and m/z 412 (diethylstilbestrol), were selected for the quantitative analysis.

[2] = Urinary recovery of HT, TYR and their metabolites (LC-MS/MS), crossover clinical trial; type: in vivo; conditions: urine 0-6 h, n = 12, mean ± SD
Description: (§1) Volunteers received each treatment in a randomized manner. […] The total duration of the study was nine days.
The quantification of urinary levels of HT and TYR free forms and their metabolites was performed using a solid-phase extraction and following the method previously described. The method was capable of detecting the free forms HT, TYR, and HVALc; the sulfate conjugates HT-sulfate, TYR-sulfate, and HT-acetate-sulfate; and the glucuronide conjugates HT-glucuronide, TYR-glucuronide, and HVALc-glucuronide. Shortly thereafter, aliquots of 0.5 mL of the samples were diluted with 0.5 mL of purified water and spiked with 10 µL of internal standard (containing 10 µg/mL of HT-D3, 3-(4-hydroxyphenyl)-1-propanol, 4-(3-hydroxypropylphenyl) glucuronide and HT-1-sulfate) and stabilized with 1 mL of phosphoric acid 4%. Thereafter, samples were submitted to a solid-phase extraction by means of Oasis HLB columns. Samples were loaded into the cartridges, and the cartridges were then washed with 2 mL of purified water. Finally, the compounds of interest were eluted by adding 2 mL of methanol to the cartridges. Subsequently, the methanol was evaporated until dry using nitrogen (29 °C, 10–15 psi). Finally, the dried extracts were reconstituted in 100 µL of a mixture of mobile phases (91% A/9% B v/v), transferred into HPLC vials, and analyzed by LC-MS/MS.
Identification and quantification of HT and TYR metabolites was performed using an Agilent 1200 series HPLC system (Agilent technologies, Santa Clara, California, CA, USA) coupled to a triple quadrupole (6410 Triple Quad LC/MS; Agilent) mass spectrometer with an electrospray interface. The chromatographic separation was carried out with an Acquity UPLC® BEH C18 column with a 1.7 μm particle size, 3 mm × 100 mm (Waters, Milford, MA, USA) maintained at 40 °C. The composition of mobile phase A was 0.01% of ammonium acetate (pH 5) in water; mobile phase B was pure methanol. The injection volume was 10 μL and the ion source operated in negative ionization mode.

[3] = Ethyl glucuronide quantification in urine (LC-MS/MS); type: in vivo, humans
Description: as §1
Ethyl glucuronide concentration in urine was used as a marker of alcohol abstinence and compliance with the dietary recommendations before each intervention. To determine urinary concentrations of ethyl glucuronide, aliquots of 30 μL were mixed with 10 μL of IS mix solution (containing 10 μg/mL ethyl-glucuronide-d5 and ethyl-sulfate-d5) and 110 μL of 0.1% formic acid solution in water. The identification and the quantification of ethyl glucuronide were carried out using an Agilent 1200 series HPLC system (Agilent technologies) (Santa Clara, California, CA, USA) coupled to a triple quadrupole (6410 Triple Quad LC/MS; Agilent) mass spectrometer with an electrospray interface. To perform the chromatographic separation, an Acquity UPLC® BEH C18 column with a 1.7 μm particle size, 3 mm × 100 mm (Waters, Milford, MA, USA) was used. The composition of mobile phase A was 0.1% (v/v) formic acid in water, and mobile phase B was 0.1% (v/v) formic acid in acetonitrile.

[4] = baseline urine (-2 to 0 h), after washout diet

Structure (SMILES) | Urinary recovery from 0 to 6 h (single free form or metabolite) ([2]; after 25 mL EVOO + 150 mL RW) | Urinary recovery from 0 to 6 h (single free form or metabolite) ([2]; after single dose 25 mL EVOO) [nmol] | Urinary recovery from 0 to 6 h (single free form or metabolite) ([2]; after single dose 150 mL RW) | RESV urinary recovery from 0 to 6 h ([1]; after 25 mL EVOO + 150 mL RW) | RESV urinary recovery from 0 to 6 h ([1]; after single dose 25 mL EVOO) [nmol] | RESV urinary recovery from 0 to 6 h ([1]; after single dose 150 mL RW) | further results
Oc1ccc(C=Cc2cc(O)cc(O)c2)cc1 [RESV, 3,4′,5-Trihydroxystilbene] | – | – | – | – | – | – | RESV in baseline urine samples [1, 4]: no RESV was observed
OCCc1ccc(O)c(O)c1 [HT, 3,4-dihydroxyphenylethanol] | 386 ± 289 ^bb nmol | 367 ± 221 | 201 ± 173 ^aa nmol | – | – | – | Total urinary recovery from 0 to 6 h (sum of free form and metabolites) ([2]; after 25 mL EVOO + 150 mL RW): 6286 ± 3198 nmol; Total urinary recovery from 0 to 6 h (sum of free form and metabolites) ([2]; after 25 mL EVOO + 150 mL RW, listed as Total HT): 6286 ± 3198 ^aa bb nmol; Total urinary recovery from 0 to 6 h (sum of free form and metabolites) ([2]; after single dose 25 mL EVOO): 3788 ± 1751 nmol; Total urinary recovery from 0 to 6 h (sum of free form and metabolites) ([2]; after single dose 150 mL RW): 2308 ± 847 nmol; Total urinary recovery from 0 to 6 h (sum of free form and metabolites) ([2]; after single dose 150 mL RW, listed as Total HT): 2308 ± 847 ^a nmol
OCCc1ccc(O)cc1 [TYR, tyrosol] | 460 ± 490 ^b nmol | 404 ± 346 | 132 ± 114 ^aa nmol | – | – | – | Total urinary recovery from 0 to 6 h (sum of free form and metabolites) ([2]; after 25 mL EVOO + 150 mL RW): 4925 ± 1751 nmol; Total urinary recovery from 0 to 6 h (sum of free form and metabolites) ([2]; after 25 mL EVOO + 150 mL RW, listed as Total TYR): 4925 ± 3993 ^aa b nmol; Total urinary recovery from 0 to 6 h (sum of free form and metabolites) ([2]; after single dose 25 mL EVOO): 2180 ± 1917 nmol; Total urinary recovery from 0 to 6 h (sum of free form and metabolites) ([2]; after single dose 150 mL RW): 2567 ± 1468 nmol
CCO[C@@H]1O[C@H](C(=O)O)[C@@H](O)[C@H](O)[C@H]1O [Ethyl glucuronide] | – | – | – | – | – | – | Ethyl glucuronide recovery in urine ([3]; after EVOO (25 mL)): undetectable; Ethyl glucuronide recovery in urine ([3]; after RW + EVOO intervention): 19.3 ± 7.6 µmols; Ethyl glucuronide recovery in urine ([3]; after RW intervention (150 mL)): 19.0 ± 9.5 µmols; Ethyl glucuronide in urine at baseline [3, 4]: undetectable
Oc1ccc(C=Cc2cc(O)cc(O)c2)cc1 [c-RESV, 3,4′,5-Trihydroxystilbene] | – | – | – | 83.8 ± 62.6 ^aa nmol | 0.0 ± 0.0 | 72.8 ± 44.3 ^aa nmol | –
Oc1ccc(CCc2cc(O)cc(O)c2)cc1 [Dihydro-RESV, Dihydroresveratrol] | – | – | – | 13.0 ± 8.3 ^aa nmol | 0.0 ± 0.0 | 10.9 ± 7.5 ^aa nmol | RESV urinary recovery from 0 to 6 h ([1]; after 25 mL EVOO + 150 mL RW, listed as dihydro-RESV): 13.0 ± 8.3 nmol; RESV urinary recovery from 0 to 6 h ([1]; after single dose 150 mL RW, listed as dihydro-RESV): 10.9 ± 7.5 nmol
COc1cc(CCO)ccc1O [Free HVALc, homovanillyl alcohol] | 247 ± 205 ^bb nmol | 269 ± 145 | 110 ± 118 ^aa nmol | – | – | – | –
Oc1ccc(C=Cc2cc(O)cc(O)c2)cc1 [t-RESV, 3,4′,5-Trihydroxystilbene] | – | – | – | 61.7 ± 42.4 nmol and 61.7 ± 42.4 ^aa nmol | 0.0 ± 0.0 | 59.2 ± 28.7 nmol and 59.2 ± 28.7 ^aa nmol | –
